US7994140B2, “Classes of compounds that interact with GPCRs” (Alchemia Limited, priority 2002, dated 2011)

What was measured:
MC4 = molecular target: T1, MC4 (Homo sapiens, UniProt P32245); test: GPCR radioligand binding (RLB) assay, melanocortin MC4, [125I]NDP-αMSH
T1 construct: purchased Perkin Elmer BioSignal; host or cells: HEK 293
Outline: (§1)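 Competition binding against radioligand ([125I]NDP-αMSH for MC4, [125I]SST-14 for SST5) on membranes of HEK 293 cells carrying the human receptor; buffer and incubation time optimized per receptor. Filtration through 0.5% PEI-treated glass fiber, washing, then scintillation counting.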

SST5 = molecular target: T2, SST5 (Homo sapiens, UniProt P35346); test: GPCR radioligand binding (RLB) assay, somatostatin SST5, [125I]SST-14; details: for SST5 inhibition at 10 micromolar: recombinant human receptor membranes (HEK 293)
T2 construct: purchased Perkin Elmer BioSignal; host or cells: HEK 293
T2 sequence (P35346 whole entry): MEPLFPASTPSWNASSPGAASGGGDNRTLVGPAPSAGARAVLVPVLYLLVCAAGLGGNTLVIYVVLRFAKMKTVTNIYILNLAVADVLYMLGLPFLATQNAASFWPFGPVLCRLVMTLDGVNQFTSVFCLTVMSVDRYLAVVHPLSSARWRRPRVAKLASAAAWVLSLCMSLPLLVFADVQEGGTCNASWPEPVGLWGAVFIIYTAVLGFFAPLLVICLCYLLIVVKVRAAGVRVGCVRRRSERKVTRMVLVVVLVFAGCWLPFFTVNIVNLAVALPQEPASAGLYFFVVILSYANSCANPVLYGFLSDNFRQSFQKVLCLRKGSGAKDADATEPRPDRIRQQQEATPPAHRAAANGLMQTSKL
Outline: as §1

[1] = 10 micromolar, Example Library 4
[2] = 10 micromolar compound, recombinant human receptor membranes (HEK 293)
[3] = 10 micromolar compound, Example Library 8

T1 sequence (P32245 whole entry): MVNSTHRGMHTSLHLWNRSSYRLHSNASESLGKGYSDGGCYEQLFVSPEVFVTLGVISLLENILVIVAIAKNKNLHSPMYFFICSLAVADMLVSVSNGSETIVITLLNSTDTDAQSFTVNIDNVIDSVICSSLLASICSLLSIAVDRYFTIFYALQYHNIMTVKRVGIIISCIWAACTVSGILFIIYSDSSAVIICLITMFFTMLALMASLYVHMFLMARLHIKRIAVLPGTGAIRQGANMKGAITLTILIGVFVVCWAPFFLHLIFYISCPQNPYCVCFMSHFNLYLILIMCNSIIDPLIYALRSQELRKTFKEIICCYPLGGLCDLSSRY

Row | SMILES | MC4 inhibition at 10 micromolar (MC4; [1]) | SSTS inhibition at 10 micromolar (SST5; [1]) | MC4 inhibition at 10 micromolar (MC4; [2]) | SST5 inhibition at 10 micromolar (SST5; 10 micromolar compound) | SSTS inhibition at 10 micromolar (SST5; [3])
1 | COCC1OC(OCc2ccc3ccccc3c2)C(NC(=O)CCCNC(=N)N)C(OCc2ccc(Cl)cc2)C1O (stereo not drawn) [Compound 295] | + (Indicates inhibition greater than . . . 50%) | + (Indicates inhibition greater than . . . 50%) | – | – | –
2 | COCC1OC(OCc2ccc3ccccc3c2)C(NC(=O)CNC(=N)N)C(OCc2ccc(-c3ccccc3)cc2)C1O (stereo not drawn) [Compound 297] | + (Indicates inhibition greater than . . . 50%) | + (Indicates inhibition greater than . . . 50%) | – | – | –
3 | COCC1OC(OCc2ccc3ccccc3c2)C(NC(=O)CN)C(OCc2ccc(-c3ccccc3)cc2)C1O (stereo not drawn) [Compound 298] | + (Indicates inhibition greater than . . . 50%) | + (Indicates inhibition greater than . . . 50%) | – | – | –
4 | COCC1OC(OCc2ccc3ccccc3c2)C(NC(=O)CCNC(=N)N)C(OCc2ccc(-c3ccccc3)cc2)C1O (stereo not drawn) [Compound 299] | + (Indicates inhibition greater than . . . 50%) | + (Indicates inhibition greater than . . . 50%) | – | – | –
5 | COCC1OC(OCc2ccc3ccccc3c2)C(NC(=O)CCCN)C(OCc2ccc(-c3ccccc3)cc2)C1O (stereo not drawn) [Compound 300] | + (Indicates inhibition greater than . . . 50%) | + (Indicates inhibition greater than . . . 50%) | – | – | –
6 | COCC1OC(OCc2ccc3ccccc3c2)C(NC(=O)CCCNC(=N)N)C(OCc2ccc(-c3ccccc3)cc2)C1O (stereo not drawn) [Compound 301] | + (Indicates inhibition greater than . . . 50%) | + (Indicates inhibition greater than . . . 50%) | – | – | –
7 | COCC1OC(OCc2ccc3ccccc3c2)C(NC(=O)CN)C(OCc2ccc3ccccc3c2)C1O (stereo not drawn) [Compound 302] | + (Indicates inhibition greater than . . . 50%) | + (Indicates inhibition greater than . . . 50%) | – | – | –
8 | COCC1OC(OCc2ccc3ccccc3c2)C(NC(=O)CNC(=N)N)C(OCc2ccc3ccccc3c2)C1O (stereo not drawn) [Compound 303] | + (Indicates inhibition greater than . . . 50%) | + (Indicates inhibition greater than . . . 50%) | – | – | –
9 | COCC1OC(OCc2ccc3ccccc3c2)C(NC(=O)CCNC(=N)N)C(OCc2ccc3ccccc3c2)C1O (stereo not drawn) [Compound 305] | + (Indicates inhibition greater than . . . 50%) | + (Indicates inhibition greater than . . . 50%) | – | – | –
10 | COCC1OC(OCc2ccc3ccccc3c2)C(NC(=O)CCCNC(=N)N)C(OCc2ccc3ccccc3c2)C1O (stereo not drawn) [Compound 307] | + (Indicates inhibition greater than . . . 50%) | + (Indicates inhibition greater than . . . 50%) | – | – | –
11 | CSC1OC(COC(=O)CCC2CNc3ccccc32)C(O)C(OCc2cccc(N)c2)C1NCc1ccccc1 (stereo not drawn) [Compound 311] | – | – | + (Indicates inhibition greater than . . . 50%) | + (Indicates inhibition greater than . . . 50%) | –
12 | CSC1OC(COC(=O)Cc2ccccc2)C(O)C(OCc2cccc(N)c2)C1NCc1ccc(Cl)cc1 (stereo not drawn) [Compound 313] | – | – | + (Indicates inhibition greater than . . . 50%) | + (Indicates inhibition greater than . . . 50%) | –
13 | CSC1O[C@H](COCc2ccccc2)[C@@H](O)[C@H](OCc2cccc(N)c2)[C@H]1NC(=O)CCC1CNc2ccccc21 (stereo partly drawn) [Compound 320] | – | – | + (Indicates inhibition greater than . . . 50%) | + (Indicates inhibition greater than . . . 50%) | –
14 | CSC1O[C@H](COCc2ccc(Cl)cc2)[C@@H](O)[C@H](OCc2cccc(N)c2)[C@H]1NC(=O)Cc1c[nH]c2ccccc12 (stereo partly drawn) [Compound 324] | – | – | + (Indicates inhibition greater than . . . 50%) | + (Indicates inhibition greater than . . . 50%) | –
15 | CSC1OC(COCc2cccc(N)c2)C(O)C(OCc2ccccc2)C1NC(=O)Cc1ccccc1 (stereo not drawn) [Compound 327] | – | – | + (Indicates inhibition greater than . . . 50%) | + (Indicates inhibition greater than . . . 50%) | –
16 | CSC1OC(COCc2cccc(N)c2)C(O)C(OCc2ccccc2)C1NC(=O)CCC1CNc2ccccc21 (stereo not drawn) [Compound 330] | – | – | + (Indicates inhibition greater than . . . 50%) | + (Indicates inhibition greater than . . . 50%) | –
17 | CSC1OC(COCc2cccc(N)c2)C(O)C(OCc2ccc(Cl)cc2)C1NC(=O)c1ccccc1 (stereo not drawn) [Compound 331] | – | – | + (Indicates inhibition greater than . . . 50%) | + (Indicates inhibition greater than . . . 50%) | –
18 | CSC1O[C@H](COCc2cccc(N)c2)[C@@H](O)[C@H](OCc2ccccc2)[C@H]1NC(=O)Cc1c[nH]c2ccccc12 (stereo partly drawn) [Compound 336] | – | – | + (Indicates inhibition greater than . . . 50%) | – | + (Indicates inhibition greater than . . . 50%)
19 | CSC1O[C@H](COCc2cccc(N)c2)[C@@H](O)[C@H](OCc2ccc(Cl)cc2)[C@H]1NC(=O)c1ccccc1 (stereo partly drawn) [Compound 338] | – | – | + (Indicates inhibition greater than . . . 50%) | – | + (Indicates inhibition greater than . . . 50%)
20 | CSC1O[C@H](COCc2cccc(N)c2)[C@@H](O)[C@H](OCc2ccc(Cl)cc2)[C@H]1NC(=O)Cc1ccccc1 (stereo partly drawn) [Compound 339] | – | – | + (Indicates inhibition greater than . . . 50%) | – | + (Indicates inhibition greater than . . . 50%)
21 | CSC1O[C@H](COCc2cccc(N)c2)[C@@H](O)[C@H](OCc2ccc(Cl)cc2)[C@H]1NC(=O)Cc1c[nH]c2ccccc12 (stereo partly drawn) [Compound 341] | – | – | + (Indicates inhibition greater than . . . 50%) | – | + (Indicates inhibition greater than . . . 50%)
